Test results taken from patent US10202420B2, “Methods and compositions for treatment of cartilage and disc tissue pathologies” (THE ROYAL INSTITUTION FOR ADVANCEMENT OF LEARNING/MCGILL …, priority 2013, dated 2019).
Where no end group is shown, it is not given here.

What was measured:
[1] = test system: cells from degenerated disc tissue; details: Wang et al.; 100 ng/mL; monolayer-expanded cells in 3D culture; cited from earlier work
[2] = test system: bovine annulus fibrosus (AF) cells; experiment: Proteoglycan synthesis by 35SO4 incorporation, cells in alginate beads; assay type: cell-based; details: 48 h, 16-mer peptides 1 μg/mL, 8-mer peptides 0.5 μg/mL, vs medium alone
Procedure: (§1) Human and bovine IVDs were separated from the adjoining vertebral body and divided into NP and AF for bovine IVDs and NP and inner annulus fibrosus (iAF) for human IVDs. Tissue from the human outer annulus fibrosus (oAF) was not used for cell isolation in this study. Cells were enzymatically isolated from each region as previously described (63). Briefly, NP and AF tissues were dissected into approximately 2-mm thick pieces, washed twice in PBS containing 50 μg/mL gentamicin, […] and 0.25 μg/mL fungizone, then digested with 0.2% pronase for 1 h, followed by collagenase type IA at 0.01% for NP and 0.04% for AF tissue for 4 h in serum free DMEM.
(§2) To compare the metabolic response to the various Link N peptides, freshly isolated human and bovine cells from NP and AF regions were embedded in 1.2% alginate beads, as previously described (65). Cells in alginate beads were cultured at 37° C., 5% CO2 in DMEM, containing 4.5 g/L glucose and supplemented with 10% FCS, 25 mmol/L HEPES, 50 μg/mL gentamicin sulphate, 0.25 μg/mL fungizone, 50 μg/mL L-ascorbate, and 2 mmol/L GlutaMAX. The beads were stabilized for 7 days and cell viability was assessed by Live/Dead® assay prior to further treatment. 5 beads per well were then cultured in 48 well plates in the presence of equimolar concentrations of either Link N (1 μg/mL), R-Link N (1 μg/mL), S-Link N (1 μg/mL), Link N 1-8 (0.5 μg/mL) or Link N 9-16 (0.5 μg/mL) in 0.5 mL DMEM. 25 μCi/mL ^35SO4 was added to the medium to allow assessment of proteoglycan synthesis (66). In addition, beads were exposed for 48 h to IL-1β (10 ng/mL) alone, or to a combination of peptides and IL-1β (51). At the end of the culture period, medium was collected and dialyzed exhaustively against miliQ water at […] (Spectra/Por® 3), followed by cold chase with 1M MgSO4 for 2 h to remove any remaining unincorporated ^35SO4. The ^35SO4 incorporation was measured using a beta scintillation counter (Beckman Coulter LS6500, Beckman Coulter, Mississauga, Canada).

[3] = test system: bovine nucleus pulposus (NP) cells; experiment: as above; assay type: cell-based; details: 48 h, 16-mer peptides 1 μg/mL, 8-mer peptides 0.5 μg/mL, vs medium alone
Procedure: as §1, §2

[4] = test system: human inner annulus fibrosus (iAF) cells; experiment: as above; assay type: cell-based; details: human AF (iAF) cells, 48 h; for proteoglycan synthesis (35SO4 incorporation): 16-mer peptides 1 μg/mL, 8-mer peptides 0.5 μg/mL, vs medium alone
Procedure: (§3) Human thoracolumbar spines were retrieved through the Transplant Quebec organ donation program. Discs were obtained from 7 donors, 1 male and 6 female, with a mean age of 29.6 years and an age range of 16 to 47 years (Table 1). Donors having had recent chemotherapy, radiation therapies to the spine, or significant long-standing paralysis were excluded from the study. Spine retrieval was performed within 8 h of death. Discs with calcification and loss of disc height were not included in the study. All procedures were approved by the institutional review board of the Montreal General Hospital.
as §1, §2

[5] = test system: human nucleus pulposus (NP) cells; experiment: as above; assay type: cell-based; details: 48 h; for proteoglycan synthesis (35SO4 incorporation): 16-mer peptides 1 μg/mL, 8-mer peptides 0.5 μg/mL, vs medium alone
Procedure: as §3, §1, §2

[6] = LIVE/DEAD cell viability in alginate beads; assay type: cell-based; details: bovine, bovine intervertebral disc NP and AF cells in alginate beads, 1 μg/ml, 18 days, alginate scaffolds, read-out: cellular viability
Procedure: Coccygeal IVDs from healthy 20-24 month old steers were obtained from a local abattoir at 2-3 hours after slaughter. The IVDs were separated from their adjacent vertebral bodies, and the cells were isolated from the NP and AF regions by sequential digestion with 0.2% Pronase followed by 0.125% Collagenase digestion as previously described. After isolation, the NP and AF cells were either immediately embedded in alginate beads or were plated in 6 well plates for protein extraction.
After isolation the NP and AF cells were resuspended in 1.2% alginate (dissolved in 0.15 M NaCl) at a concentration of 2 million cells per ml. Alginate was chosen to assess the effect on matrix production in the absence of extensive cell proliferation. Droplets of cell suspension were released through an 18-gauge needle into 102 mM calcium chloride solution and were let to polymerize for 10 minutes. Alginate beads were subsequently stabilized for 7 days in culture media (Dulbecco's Modified Eagle Medium high glucose supplemented with 10% fetal bovine serum and antibiotics). […]
Cell viability was assessed at day 18 on the alginate beads using a live/dead fluorescence assay (Live/Dead®, Invitrogen) and visualized by fluorescent microscopy.

[7] = test system: human NP cells; experiment: Stability of Link N in the presence of cells (monolayer, mass spectrometry); assay type: in vitro ADME; details: Link N 1 μg/mL, 37° C.
Procedure: (§4) To evaluate the stability of Link N, freshly isolated human cells from NP and AF regions were plated in 6 well culture plates at a density of 250,000 cells per well. Cells were cultured at 37° C., 5% CO2 in 3 mL DMEM, containing 4.5 g/L glucose and supplemented with 10% FCS, 25 mmol/L HEPES, 50 μg/mL gentamicin sulphate, 0.25 μg/mL fungizone, 50 μg/mL L-ascorbate, and 2 mmol/L GlutaMAX. The wells were left for 2 days before exposure to Link-N (1 μg/mL). 200 μL medium was collected at fixed time points (0 h, 6 h, 12 h, 24 h, 36 h, and 48 h). Stability of the peptide was also studied at the same time points in the absence of cells.
25 μL medium samples, collected from the monolayer cultures described above or peptide digests were purified on C18 spin columns according to standard protocols (Harvard Apparatus, Holliston, Mass.). Eluted peptides were reconstituted in 20 μL, 2% acetonitrile and 0.2% formic acid (FA). Samples were injected and quantified using a triple quadropole mass spectrometer TSQ Vantage™ (Thermo Scientific, Waltham, Mass.) equipped with an easy nano-LC system (Thermo Scientific). The mass spectrometer was operated in SRM mode, with both Q1 and Q3 settings at unit resolution (FWHM 0.7 Da). A spray voltage of +1,700 V was used with a heated ion transfer setting of 270° C. for desolvation. Data were acquired using the Xcalibur software (version 2.1). […]

[8] = target: T1, HTRA1 (Homo sapiens, UniProt Q92743); experiment: Proteinase treatment of Link N, peak area by mass spectrometry; assay type: in vitro ADME; details: 30 minutes, 2 and 24 hours
T1 construct: purchased Thermo Scientific
Procedure: (§5) 300 μg Link N 1-16 was incubated for 30 minutes, 2 and 24 hours in the presence of 10 different proteinases. The buffer used for MMPs 3, 7, 12, 13, ADAMTS 4,5, HTRA1 was composed of 50 mM Tris-HCl, 200 mM NaCl, 5 mM CaCl2, 0.01% Rapigest. For cathepsins K, B, and L, the digest buffer was composed of 2.5 mM DTT, 0.15% chondroitin sulfate A, 0.1 M sodium acetate, pH 5.5.
(§6) 25 μL medium samples, collected from the monolayer cultures described above or peptide digests were purified on C18 spin columns according to standard protocols (Harvard Apparatus, Holliston, Mass.). Eluted peptides were reconstituted in 20 μL, 2% acetonitrile and 0.2% formic acid (FA). Samples were injected and quantified using a triple quadropole mass spectrometer TSQ Vantage™ (Thermo Scientific, Waltham, Mass.) equipped with an easy nano-LC system (Thermo Scientific). The mass spectrometer was operated in SRM mode, with both Q1 and Q3 settings at unit resolution (FWHM 0.7 Da). A spray voltage of +1,700 V was used with a heated ion transfer setting of 270° C. for desolvation. Data were acquired using the Xcalibur software (version 2.1). Mobile phases used were A (0.1% FA in water) and B (100% acetonitrile in 0.1% FA). Separation was performed on 10 μm tip, 75 μm×15 cm capillary columns (PicoTip™ emitter, New Objective, Woburn, Mass.) packed with Reprosil-Pur C18-AQ resin (3 μm, Dr. Maich GmbH, Switzerland). 1 μL sample was injected and separation was performed at a flow rate of 300 nL/min using a gradient of 97% mobile phase A for 5 min, 85% A for 8 min, 65% A for 42 min, and 19% A for 45-50 min.

[9] = target: cathepsin L (Homo sapiens, UniProt P07711); experiment: as above; assay type: in vitro ADME; details: 30 minutes, 2 and 24 hours
Procedure: as §5, §6

[10] = target: T2, MMP 12 (Homo sapiens, UniProt P39900); experiment: as above; assay type: in vitro ADME; details: 30 minutes, 2 and 24 hours
T2 construct: purchased R&D Systems
Procedure: as §5, §6

[11] = target: T3, MMP 13 (Homo sapiens, UniProt P45452); experiment: as above; assay type: in vitro ADME; details: 30 minutes, 2 and 24 hours
T3 construct: purchased R&D Systems
Procedure: as §5, §6

[12] = target: T4, MMP 3 (Homo sapiens, UniProt P08254); experiment: as above; assay type: in vitro ADME; details: 30 minutes, 2 and 24 hours
T4 construct: purchased R&D Systems
Procedure: as §5, §6

[13] = target: T5, ADAMTS 4 (Homo sapiens, UniProt O75173); experiment: as above; assay type: in vitro ADME; details: 30 minutes, 2 and 24 hours
T5 construct: purchased R&D Systems
Procedure: as §5, §6

[14] = target: T6, MMP 7 (Homo sapiens, UniProt P09237); experiment: as above; assay type: in vitro ADME; details: 30 minutes, 2 and 24 hours
T6 construct: purchased R&D Systems
Procedure: as §5, §6

[15] = target: T7, cathepsin K (Homo sapiens, UniProt P43235); experiment: as above; assay type: in vitro ADME
T7 sequence (P43235 115-329): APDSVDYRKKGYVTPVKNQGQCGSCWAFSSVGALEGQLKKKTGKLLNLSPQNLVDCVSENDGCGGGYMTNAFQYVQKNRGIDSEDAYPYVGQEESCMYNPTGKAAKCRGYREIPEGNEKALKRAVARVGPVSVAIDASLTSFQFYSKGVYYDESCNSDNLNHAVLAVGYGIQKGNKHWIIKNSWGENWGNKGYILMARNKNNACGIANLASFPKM
Procedure: as §5, §6

[16] = target: T8, ADAMTS 5 (Homo sapiens, UniProt Q9UNA0); experiment: as above; assay type: in vitro ADME; details: 30 minutes, 2 and 24 hours
T8 construct: purchased R&D Systems
Procedure: as §5, §6

[17] = target: cathepsin B (Homo sapiens, UniProt P07858); experiment: as above; assay type: in vitro ADME; details: 30 minutes, 2 and 24 hours
Procedure: as §5, §6

[18] = cited from earlier work
[19] = test system: human AF cells; experiment: Stability and processing of Link N in the presence of cells (monolayer, mass spectrometry); assay type: in vitro ADME; details: for peak area intensity of intact Link N in the presence of AF cells: human AF cells in monolayer
Procedure: as §4
as §6, with “min. […]” for “min.”

[20] = IL-1β 10 ng/mL, vs IL-1-containing medium

T1 sequence (Q92743 23-480): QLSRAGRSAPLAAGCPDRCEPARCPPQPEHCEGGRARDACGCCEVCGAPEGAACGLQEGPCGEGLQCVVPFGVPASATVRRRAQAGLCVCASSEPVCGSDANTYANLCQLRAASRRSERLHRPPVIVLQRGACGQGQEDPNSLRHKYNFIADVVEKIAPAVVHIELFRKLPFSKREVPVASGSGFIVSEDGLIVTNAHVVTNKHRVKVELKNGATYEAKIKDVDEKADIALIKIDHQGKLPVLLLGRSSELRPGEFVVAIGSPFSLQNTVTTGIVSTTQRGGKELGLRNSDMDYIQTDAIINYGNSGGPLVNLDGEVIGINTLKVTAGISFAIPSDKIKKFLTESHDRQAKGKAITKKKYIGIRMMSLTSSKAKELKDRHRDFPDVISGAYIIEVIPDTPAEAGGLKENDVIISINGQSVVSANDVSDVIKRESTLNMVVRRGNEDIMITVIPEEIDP
T2 sequence (P39900 106-470): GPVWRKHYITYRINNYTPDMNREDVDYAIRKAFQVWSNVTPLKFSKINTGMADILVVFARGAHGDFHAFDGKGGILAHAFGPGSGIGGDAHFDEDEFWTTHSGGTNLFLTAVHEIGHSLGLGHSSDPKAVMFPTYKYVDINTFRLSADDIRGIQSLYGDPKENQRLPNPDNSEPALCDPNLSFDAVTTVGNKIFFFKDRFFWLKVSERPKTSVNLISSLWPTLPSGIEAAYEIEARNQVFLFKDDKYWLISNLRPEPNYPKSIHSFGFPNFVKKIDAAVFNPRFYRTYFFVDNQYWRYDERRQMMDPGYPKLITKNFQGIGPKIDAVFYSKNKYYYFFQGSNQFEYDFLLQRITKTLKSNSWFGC
T4 sequence (P08254 100-477): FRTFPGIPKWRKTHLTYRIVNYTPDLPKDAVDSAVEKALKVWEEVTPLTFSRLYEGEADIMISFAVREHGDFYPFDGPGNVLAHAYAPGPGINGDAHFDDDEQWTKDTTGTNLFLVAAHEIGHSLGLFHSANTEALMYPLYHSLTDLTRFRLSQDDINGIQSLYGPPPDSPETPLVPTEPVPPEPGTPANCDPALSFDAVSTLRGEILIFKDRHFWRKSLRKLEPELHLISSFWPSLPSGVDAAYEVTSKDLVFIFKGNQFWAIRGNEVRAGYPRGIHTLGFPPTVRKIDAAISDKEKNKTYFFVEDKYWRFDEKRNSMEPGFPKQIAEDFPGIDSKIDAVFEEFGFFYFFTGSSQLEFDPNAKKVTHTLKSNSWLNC
T6 sequence (P09237 95-267): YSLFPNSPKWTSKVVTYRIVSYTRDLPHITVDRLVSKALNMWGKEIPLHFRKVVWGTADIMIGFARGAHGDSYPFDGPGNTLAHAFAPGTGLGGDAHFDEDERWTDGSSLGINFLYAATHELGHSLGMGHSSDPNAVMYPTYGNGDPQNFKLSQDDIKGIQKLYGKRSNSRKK
T8 sequence (Q9UNA0 262-930): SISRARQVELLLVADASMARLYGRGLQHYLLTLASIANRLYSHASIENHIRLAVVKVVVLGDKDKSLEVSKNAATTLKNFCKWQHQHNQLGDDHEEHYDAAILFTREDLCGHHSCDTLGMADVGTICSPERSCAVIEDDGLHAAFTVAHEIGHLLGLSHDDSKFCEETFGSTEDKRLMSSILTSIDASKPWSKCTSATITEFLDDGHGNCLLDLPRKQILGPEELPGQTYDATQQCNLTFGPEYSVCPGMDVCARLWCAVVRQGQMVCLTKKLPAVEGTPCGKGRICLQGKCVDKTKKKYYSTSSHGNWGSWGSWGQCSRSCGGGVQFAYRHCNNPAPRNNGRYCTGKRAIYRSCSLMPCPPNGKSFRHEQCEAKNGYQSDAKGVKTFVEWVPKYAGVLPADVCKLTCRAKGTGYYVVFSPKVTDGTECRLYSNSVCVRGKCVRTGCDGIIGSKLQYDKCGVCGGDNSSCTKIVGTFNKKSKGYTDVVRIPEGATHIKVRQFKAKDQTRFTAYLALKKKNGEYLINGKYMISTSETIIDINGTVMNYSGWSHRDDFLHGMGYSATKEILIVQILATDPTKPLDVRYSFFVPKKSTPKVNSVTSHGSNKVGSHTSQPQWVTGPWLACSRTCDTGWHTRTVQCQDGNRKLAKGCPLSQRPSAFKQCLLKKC
cathepsin L, sequence (P07711 114-333): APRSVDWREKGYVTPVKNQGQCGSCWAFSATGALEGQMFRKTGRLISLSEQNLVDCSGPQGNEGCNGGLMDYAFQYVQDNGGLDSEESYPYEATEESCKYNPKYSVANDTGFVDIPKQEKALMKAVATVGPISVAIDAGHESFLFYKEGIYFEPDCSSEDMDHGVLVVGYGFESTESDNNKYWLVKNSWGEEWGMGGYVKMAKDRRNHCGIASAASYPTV
T5 sequence (O75173 213-837): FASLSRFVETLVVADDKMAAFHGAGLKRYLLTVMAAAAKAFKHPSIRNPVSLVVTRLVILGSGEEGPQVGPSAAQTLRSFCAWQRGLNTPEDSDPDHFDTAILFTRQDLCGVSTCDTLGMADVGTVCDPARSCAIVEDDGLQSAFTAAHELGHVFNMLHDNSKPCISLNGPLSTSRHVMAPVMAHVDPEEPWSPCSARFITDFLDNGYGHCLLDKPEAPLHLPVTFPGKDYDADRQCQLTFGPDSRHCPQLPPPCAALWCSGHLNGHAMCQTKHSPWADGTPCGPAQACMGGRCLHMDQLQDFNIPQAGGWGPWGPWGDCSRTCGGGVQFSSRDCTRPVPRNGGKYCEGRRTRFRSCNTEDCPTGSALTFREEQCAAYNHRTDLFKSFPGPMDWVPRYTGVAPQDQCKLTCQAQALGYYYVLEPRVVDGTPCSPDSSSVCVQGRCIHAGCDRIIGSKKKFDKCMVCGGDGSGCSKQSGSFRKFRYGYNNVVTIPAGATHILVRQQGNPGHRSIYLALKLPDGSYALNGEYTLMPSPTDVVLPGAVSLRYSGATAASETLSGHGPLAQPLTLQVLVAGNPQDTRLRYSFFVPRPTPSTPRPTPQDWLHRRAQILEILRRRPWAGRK

Substance: residue 1-12 peptide: Link N-derived peptide spanning amino acid residues 1-12, tested by Wang et al. (DHLSDNYTLDHD; UniProt P10915 16-27, looked up, fragment)
- stimulatory effect (cell-associated sulphated GAG) [1]: inactive

Substance: DLNRAHLHIDYHTDSD [S-Link N, scrambled Link N]
- proteoglycan synthesis (35SO4 incorporation) [2]: no effect was observed
- proteoglycan synthesis (35SO4 incorporation) [3]: no effect was observed
- proteoglycan synthesis (35SO4 incorporation) [4]: no response
- proteoglycan synthesis (35SO4 incorporation) [5]: no response

Substance: DHHSDNYTVDHDRVIH [BLN, DHHSDNYTVDHDRVIH]
- viability at 432 h, 1 µg/mL [6]: > 98%

Substance: DHLSDNYTLDHDRAIH [Link N, DHLSDNYTLDHDRAIH]
- time the peptide was stable in the presence of NP cells [7]: at least 48 h
- peak area intensity of the 1922 Da Link 1-16 peptide [8]: un-affected
- peak area intensity of the 1922 Da Link 1-16 peptide [9]: un-affected
- peak area intensity of the 1922 Da Link 1-16 peptide [10]: un-affected
- peak area intensity of the 1922 Da Link 1-16 peptide [11]: un-affected
- peak area intensity of the 1922 Da Link 1-16 peptide [12]: un-affected
- peak area intensity of the 1922 Da Link 1-16 peptide [13]: un-affected
- peak area intensity of the 1922 Da Link 1-16 peptide [14]: un-affected
- peak area intensity of the 1922 Da Link 1-16 peptide ([15]; 2 and 24 hours): hardly detectable
- peak area intensity of the 1922 Da Link 1-16 peptide ([15]; 30 minutes): significantly diminished
- cleavage of Link N by cathepsin K (MRM of Link 1-8 and Link 9-16) ([15]; 2 hours): single cleavage between amino acids 8 and 9
- peak area intensity of the 1922 Da Link 1-16 peptide [16]: un-affected
- peak area intensity of the 1922 Da Link 1-16 peptide [17]: un-affected
- retention of Link N in the human disc [18]: only lost slowly through the endplate and not AF
- processed product of Link N identified by tandem mass spectrometry ([19]; AF cell culture medium, 964.4 Da peptide): a peptide spanning residues 1 to 8 was generated
- peak area intensity of intact Link N in the presence of AF cells ([19]; after 48 h): only trace amounts were present
- peak area intensity of intact Link N in the presence of AF cells ([19]; by 6 h): decrease
- viability at 432 h, 1 µg/mL [6]: > 98%

Substance: LDHDRAIH [Link N 9-16, second 8 peptide residues of Link N]
- proteoglycan synthesis (35SO4 incorporation) [2]: no effect was seen
- proteoglycan synthesis (35SO4 incorporation) [3]: no effect was seen
- proteoglycan synthesis (35SO4 incorporation) [4]: no response
- proteoglycan synthesis (35SO4 incorporation) in the presence of IL-1β [4, 20]: no response
- proteoglycan synthesis (35SO4 incorporation) [5]: no response
- proteoglycan synthesis (35SO4 incorporation) in the presence of IL-1β [5, 20]: no response

Substance: HIARDHDLTYNDSLHD [R-Link N, reverse Link N]
- proteoglycan synthesis (35SO4 incorporation) [2]: no effect was observed
- proteoglycan synthesis (35SO4 incorporation) [3]: no effect was observed
- proteoglycan synthesis (35SO4 incorporation) [4]: no response
- proteoglycan synthesis (35SO4 incorporation) [5]: no response
